Columns and labels:
A549 [1] = experiment: Cytotoxicity against human A549 cells after 24 hrs by MTT assay; format: functional, cell-based; conditions: A549, 24 h
[2] = biological target: Receptor tyrosine-protein kinase erbB-2 (Homo sapiens, UniProt P04626); experiment: Inhibition of recombinant human His-tagged HER2 cytoplasmic domain (676 to 1255 residues) expressed in baculovirus virus expression system after 1 hr by ELISA
A549 [3] = experiment: Induction of apoptosis in human A549 cells assessed as increase in active caspase-3 level by immunoassay relative to control; format: functional
[4] = biological target: Epidermal growth factor receptor (Homo sapiens, UniProt P00533); experiment: Inhibition of recombinant human GST-tagged EGFR cytoplasmic domain (668 to 1210 residues) expressed in baculovirus virus expression system after 1 hr by ELISA
Epidermal growth factor receptor, sequence (P00533 whole entry, the tested form may be a part): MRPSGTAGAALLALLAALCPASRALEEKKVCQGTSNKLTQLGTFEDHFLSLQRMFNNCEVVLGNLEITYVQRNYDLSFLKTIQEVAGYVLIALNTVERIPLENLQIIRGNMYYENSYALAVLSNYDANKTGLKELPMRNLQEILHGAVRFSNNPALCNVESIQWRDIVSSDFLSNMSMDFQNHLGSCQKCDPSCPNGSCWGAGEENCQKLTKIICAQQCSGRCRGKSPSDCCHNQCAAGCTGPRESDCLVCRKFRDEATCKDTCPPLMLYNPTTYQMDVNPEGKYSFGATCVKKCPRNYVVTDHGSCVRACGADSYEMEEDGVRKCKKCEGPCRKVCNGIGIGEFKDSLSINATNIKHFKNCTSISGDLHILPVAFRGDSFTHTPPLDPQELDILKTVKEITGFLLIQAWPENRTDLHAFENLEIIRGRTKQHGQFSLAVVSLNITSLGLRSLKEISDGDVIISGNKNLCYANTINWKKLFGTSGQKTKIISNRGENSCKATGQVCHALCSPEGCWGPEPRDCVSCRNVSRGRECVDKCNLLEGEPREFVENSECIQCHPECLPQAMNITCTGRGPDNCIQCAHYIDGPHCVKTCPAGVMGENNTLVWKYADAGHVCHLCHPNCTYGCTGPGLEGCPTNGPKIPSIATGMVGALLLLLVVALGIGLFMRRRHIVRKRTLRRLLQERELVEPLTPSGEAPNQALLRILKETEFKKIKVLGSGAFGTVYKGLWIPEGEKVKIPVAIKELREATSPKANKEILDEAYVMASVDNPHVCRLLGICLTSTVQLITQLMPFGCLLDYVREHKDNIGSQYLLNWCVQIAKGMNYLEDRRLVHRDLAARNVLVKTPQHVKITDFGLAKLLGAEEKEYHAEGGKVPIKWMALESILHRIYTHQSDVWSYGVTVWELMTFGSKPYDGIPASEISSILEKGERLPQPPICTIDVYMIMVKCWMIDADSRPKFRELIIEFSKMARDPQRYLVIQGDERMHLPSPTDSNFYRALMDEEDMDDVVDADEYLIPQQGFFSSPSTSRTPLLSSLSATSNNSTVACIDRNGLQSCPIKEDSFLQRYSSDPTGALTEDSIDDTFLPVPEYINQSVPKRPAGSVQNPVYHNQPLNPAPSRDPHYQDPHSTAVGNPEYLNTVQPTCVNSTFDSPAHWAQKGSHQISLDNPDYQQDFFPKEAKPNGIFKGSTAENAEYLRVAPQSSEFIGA

Receptor tyrosine-protein kinase erbB-2, sequence (P04626 whole entry, the tested form may be a part): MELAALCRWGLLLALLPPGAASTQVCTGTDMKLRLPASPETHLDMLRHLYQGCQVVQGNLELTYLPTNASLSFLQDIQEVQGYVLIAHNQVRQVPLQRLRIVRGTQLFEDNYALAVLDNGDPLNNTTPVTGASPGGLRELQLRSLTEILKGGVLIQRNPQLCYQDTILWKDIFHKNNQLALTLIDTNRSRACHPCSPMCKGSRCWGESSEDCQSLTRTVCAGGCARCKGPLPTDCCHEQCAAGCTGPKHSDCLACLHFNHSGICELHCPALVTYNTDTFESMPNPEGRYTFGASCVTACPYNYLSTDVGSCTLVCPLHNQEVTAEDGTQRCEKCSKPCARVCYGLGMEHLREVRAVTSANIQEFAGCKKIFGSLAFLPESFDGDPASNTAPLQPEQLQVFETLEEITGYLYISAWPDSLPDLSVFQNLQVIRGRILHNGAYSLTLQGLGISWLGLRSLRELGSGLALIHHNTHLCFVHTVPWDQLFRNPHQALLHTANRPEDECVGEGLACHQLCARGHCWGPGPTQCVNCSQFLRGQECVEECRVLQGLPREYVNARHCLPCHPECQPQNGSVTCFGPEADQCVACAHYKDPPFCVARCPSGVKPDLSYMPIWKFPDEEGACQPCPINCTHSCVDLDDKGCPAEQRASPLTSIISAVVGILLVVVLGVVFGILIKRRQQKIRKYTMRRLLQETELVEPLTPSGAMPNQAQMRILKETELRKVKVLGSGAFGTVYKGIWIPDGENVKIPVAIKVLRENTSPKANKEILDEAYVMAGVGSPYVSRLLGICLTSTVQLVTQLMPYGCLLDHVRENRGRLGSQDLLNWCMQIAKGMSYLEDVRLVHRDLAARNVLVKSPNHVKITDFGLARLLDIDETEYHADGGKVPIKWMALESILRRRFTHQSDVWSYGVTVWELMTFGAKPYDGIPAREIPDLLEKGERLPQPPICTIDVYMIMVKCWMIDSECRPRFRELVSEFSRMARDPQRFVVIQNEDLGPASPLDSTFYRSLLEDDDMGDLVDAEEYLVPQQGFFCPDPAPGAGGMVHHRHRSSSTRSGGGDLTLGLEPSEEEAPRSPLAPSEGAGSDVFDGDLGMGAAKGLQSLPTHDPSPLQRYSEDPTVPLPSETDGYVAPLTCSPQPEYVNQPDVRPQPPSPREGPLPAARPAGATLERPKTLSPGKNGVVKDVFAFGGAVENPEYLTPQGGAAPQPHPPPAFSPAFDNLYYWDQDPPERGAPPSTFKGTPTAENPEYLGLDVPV

IC50 [2]	IC50 [4]	Structure (SMILES)	IC50 (A549 [1])	fold change (FC) (A549 [3])
		NS(=O)(=O)c1ccc(-n2c(SCC(=O)Nc3ccccn3)nc3cc4ccccc4cc3c2=O)cc1	3520 nM	
		NS(=O)(=O)c1ccc(-n2c(SCC(=O)Nc3ccc(Cl)cn3)nc3cc4ccccc4cc3c2=O)cc1	1020 nM	
		NS(=O)(=O)c1ccc(-n2c(SCC(=O)Nc3ccc(Br)cc3)nc3cc4ccccc4cc3c2=O)cc1	8700 nM	
		NS(=O)(=O)c1ccc(-n2c(SCC(=O)Nc3cccnc3)nc3cc4ccccc4cc3c2=O)cc1	490 nM	
760 nM		NS(=O)(=O)c1ccc(-n2c(SCC(=O)Nc3cc(Cl)c(Cl)cc3Cl)nc3cc4ccccc4cc3c2=O)cc1	290 nM	6.28
		NS(=O)(=O)c1ccc(-n2c(SCC(=O)Nc3ccc(Br)cc3Br)nc3cc4ccccc4cc3c2=O)cc1	1500 nM	
300 nM	60 nM	NS(=O)(=O)c1ccc(-n2c(SCC(=O)Nc3ccc([N+](=O)[O-])cc3[N+](=O)[O-])nc3cc4ccccc4cc3c2=O)cc1	280 nM	9.35
390 nM	110 nM	NS(=O)(=O)c1ccc(-n2c(SCC(=O)Nc3cnc4ccccc4c3)nc3cc4ccccc4cc3c2=O)cc1	120 nM	8.49
		NS(=O)(=O)c1ccc(-n2c(SCC(=O)Nc3ccncc3)nc3cc4ccccc4cc3c2=O)cc1	500 nM	
		NS(=O)(=O)c1ccc(-n2c(SCC(=O)Nc3ccc(I)cc3)nc3cc4ccccc4cc3c2=O)cc1	2530 nM	
		Cc1cccc([N+](=O)[O-])c1NC(=O)CSc1nc2cc3ccccc3cc2c(=O)n1-c1ccc(S(N)(=O)=O)cc1	1480 nM	
		NS(=O)(=O)c1ccc(-n2c(SCC(=O)Nc3cccnc3Cl)nc3cc4ccccc4cc3c2=O)cc1	670 nM	
		NS(=O)(=O)c1ccc(-n2c(SCC(=O)NCc3ccc4c(c3)OCO4)nc3cc4ccccc4cc3c2=O)cc1	1360 nM	
		NS(=O)(=O)c1ccc(-n2c(SCC(=O)Nc3ccccc3Cl)nc3cc4ccccc4cc3c2=O)cc1	1160 nM	
		NS(=O)(=O)c1ccc(-n2c(SCC(=O)Nc3c(Cl)cc(Cl)cc3Cl)nc3cc4ccccc4cc3c2=O)cc1	1070 nM	

— ChEMBL document CHEMBL4130490, “Discovery of Benzo[g]quinazolin benzenesulfonamide derivatives as dual EGFR/HER2 inhibitors” (Eur J Med Chem, 2017)
